This note sets out measurements from patent publication US8404704B2 (Alfa Wassermann S.p.A., priority 2003, dated 2013).

Data set [1] can be described thus: in vivo. Also noted: species or system Beagle female dogs. To be noted: female, beagle, dog, po; for Tmax: tmax (characterising range of the form). How it is done:
Twelve 20 week pure-bred Beagle female dogs weighing between 5.0 and 7.5 kg, have been divided into three groups of four dogs.
Each sample was transferred into an heparinized tube and was centrifuged; the plasma was divided into two 500 μl aliquots and frozen at −20° C.
(§1) Tmax=time at which the Cmax is reached;
(§2) AUC=area under the concentration-time curve calculated through the linear trapezoidal rule.

Data set [2] in a line: Intrinsic dissolution test (USP 27 monograph 1087). It counts as physicochemical. The settings on record: 0.1M aqueous phosphate buffer pH 7.4 with 0.45% sodium lauryl sulphate, 37°C. An excerpt: The die-holder containing the compacted pellet was then mounted on a laboratory stirring device, immersed in a dissolution medium and rotated by means of the stirring device.
A compacted pellet was formed in the die with a single face of defined area exposed on the bottom of the die so that from 50% to 75% of the compacted pellet could dissolve in an appropriate dissolution medium.
The holder containing the die was mounted on a laboratory stirring device, immersed in a glass vessel containing a dissolution medium and rotated at a rotation speed of 100 rpm by means of the stirring device, while keeping the temperature of the dissolution medium at 37±0.5° C. The dissolution medium contained in the glass vessel consisted of 1000 ml of 0.1M aqueous phosphate buffer pH 7.4 containing 4.5 g of sodium lauryl sulphate (SLS) and was kept at 37±0.5° C. for the whole duration of the test.

A short description of data set [3]: in vivo. Also noted: species or system Beagle female dogs. To be noted: dog; for Tmax / AUC(0-t) / AUC(0-inf) / Cmax: female, beagle, po; for AUC(0-t): AUC0-24 h; for AUC(0-inf): AUC0-inf. How it is done: Sixteen 20 week pure-bred Beagle female dogs weighing between 5.0 and 7.5 kg, have been divided into four groups of four dogs.
Each sample was transferred into a heparinized tube and was centrifuged; the plasma was divided into 500 μl two aliquots and frozen at −20° C.
as §1, §2

A short description of data set [4]: Reversible conversion of polymorphic forms with water content. The format is physicochemical. The settings on record: water absorbed from atmospheric humidity. An excerpt:
The product is hygroscopic and the obtained polymorphic form is reversible: the polymorphic form α absorbs water from atmospheric humidity, depending on the relative humidity and the exposure time. When the water content absorbed by the polymorphic form α becomes higher than 4.5%, polymorphous a converts to polymorphous β. This in its turn loses part of water by drying, changing into the polymorphic form α when a water content between […] is reached.

Data set [5] can be described thus: Intrinsic dissolution test (USP 27 monograph 1087). The format is physicochemical. The settings on record: phosphate buffer pH 7.4, 37°C; SLS 0.1%, 0.3%, 0.45% and absent.

Regarding `CO[C@H]1/C=C/O[C@@]2(C)Oc3c(C)c(O)c4c(O)c(c5c(nc6cc(C)ccn65)c4c3C2=O)NC(=O)/C(C)=C\C=C\[C@H](C)[C@H](O)[C@@H](C)[C@@H](O)[C@@H](C)[C@H](OC(C)=O)[C@@H]1C` [rifaximin β, Rifaximin], the “AUC0-24h (characterising range of the form)” value in data set [1] was 0 to 40 ng·h/mL. Besides, the “AUC0-inf (characterising range of the form)” value (from here on “AUC0-inf”) in data set [1] fell in the range of 0 to 45 ng·h/mL; in data set [1] (100 mg/kg), 0.0 to 50 ng·h/mL. The “Cmax (characterising range of the form)” value in data set [1] is 0.0 to 40 ng/mL; in data set [1] (100 mg/kg), 0.0 to 3.7 ng/mL. Besides, in data set [1], the “tmax (characterising range of the form)” value lay in the range of 1 to 6 h. Also, the AUC(0-t) in data set [1] (100 mg/kg, AUC0-t (characterising range of the form)) was less than 40 ng·h/mL. Also, the time of peak concentration (Tmax) in data set [1] (100 mg/kg) lay within 1 to 6 h. This molecule also showed an Intrinsic dissolution rate in data set [2] of 0.0147 mg/min/cm^2. For the same molecule, the Rifaximin dissolved in data set [2] (15 min) came to 0.28 mg/cm^2; in data set [2] (30 min), 0.50 mg/cm^2; in data set [2] (45 min) it was 0.72 mg/cm^2; in data set [2] (60 min) it was 0.94 mg/cm^2.

With `CO[C@H]1/C=C/O[C@@]2(C)Oc3c(C)c(O)c4c(O)c(c5c(nc6cc(C)ccn65)c4c3C2=O)NC(=O)/C(C)=C\C=C\[C@H](C)[C@H](O)[C@@H](C)[C@@H](O)[C@@H](C)[C@H](OC(C)=O)[C@@H]1C` [rifaximin α, Rifaximin], in data set [1], the “AUC0-24h (characterising range of the form)” value was 0 to 100 ng·h/mL, the “AUC0-inf” value fell in the range of 10 to 24 ng·h/mL, the “Cmax (characterising range of the form)” value was in the range of 0.0 to 10 ng/mL and the Tmax was in the range of 1 to 6 h. In data set [1] (100 mg/kg), the “AUC0-inf” value lay within 0 to 110 ng·h/mL, the “Cmax (characterising range of the form)” value is 0.0 to 5.5 ng/mL and the “tmax (characterising range of the form)” value was in the range of 1.0 to 6 h. For the same molecule, the time of peak concentration (Tmax) in data set [3] (100 mg/kg, tmax) came out at 2.5 h. Moreover, in data set [4], the “water content above which form α converts to form β” value was “higher than 4.5%”. In addition, in data set [5], the “disintegration of the compacted pellet” value is not above 10 min.

`CO[C@H]1/C=C/O[C@@]2(C)Oc3c(C)c(O)c4c(O)c(c5c(nc6cc(C)ccn65)c4c3C2=O)NC(=O)/C(C)=C\C=C\[C@H](C)[C@H](O)[C@@H](C)[C@@H](O)[C@@H](C)[C@H](OC(C)=O)[C@@H]1C` [rifaximin γ, Rifaximin]: the “AUC0-inf” value in data set [1] is 0.0 to 22000 ng·h/mL. The “Cmax (characterising range of the form)” value in data set [1] (100 mg/kg) fell in the range of 0.0 to 5000 ng/mL. For the same molecule, in data set [1] (100 mg/kg), the “tmax (characterising range of the form)” value lay in the range of 1.0 to 6.0 h. The AUC(0-t) in data set [1] (100 mg/kg, AUC0-24h (characterising range of the form)) is less than 22000 ng·h/mL; in data set [3] (25 mg/kg), 304 ng·h/mL; in data set [3] (300 mg/kg), 25000 ng·h/mL. Besides, the peak concentration (Cmax) amounted to 1080 ng/mL in data set [1] (Cmax), 114 ng/mL in data set [3] (25 mg/kg) and 3150 ng/mL in data set [3] (300 mg/kg). Moreover, the “dose dependency of exposure (in words)” value in data set [3] is “tended to increase in an over-proportional way compared to the administered dose”. Moreover, the AUC(0-inf) in data set [3] (25 mg/kg) amounted to 548 ng·h/mL; in data set [3] (300 mg/kg) it was 25500 ng·h/mL. The Tmax in data set [3] (25 mg/kg, tmax) is 1.5 h; in data set [3] (100 mg/kg) it was 2 h; in data set [3] (300 mg/kg, tmax), 3 h. This molecule registered an Intrinsic dissolution rate in data set [2] of 0.1444 mg/min/cm^2. The Rifaximin dissolved was determined as 2.46 mg/cm^2 in data set [2] (15 min), 4.52 mg/cm^2 in data set [2] (30 min), 6.44 mg/cm^2 in data set [2] (45 min) and 9.04 mg/cm^2 in data set [2] (60 min).
